Experimental data: patent publication US20070173532A1, “New Piperidine Antibiotics” (Actelion Pharmaceuticals Ltd., priority 2004, published 2007)
Converted amounts (≈) assume the structure as drawn.

Legend:
Format in all cases: cell-based
S. aureus 29213 = assay: MIC by microdilution (NCCLS) against S. aureus 29213; details: pH 7.2-7.3; for MIC: Staphylococcus aureus, 29213, cation-adjusted Mueller-Hinton Broth
Protocol: (§1) These assays have been performed following the description given in “Methods for dilution Antimicrobial Susceptibility Tests for Bacteria that Grow Aerobically, 4th ed.; Approved standard: NCCLS Document M7-A4; National Committee for Clinical Laboratory Standards: Villanova, Pa., USA, 1997”. Minimal inhibitory concentrations (MICs; mg/l) were determined in cation-adjusted Mueller-Hinton Broth (BBL) by a microdilution method following NCCLS guidelines (National Committee for Clinical Laboratory Standards. Methods for Dilution Antimicrobial Susceptibility). The pH of the test medium was 7.2-7.3. All Examples were tested against several Gram positive and Gram negative bacteria.

S. aureus A798 = assay: MIC by microdilution (NCCLS) against S. aureus A798; details: pH 7.2-7.3; for MIC: Staphylococcus aureus, A798, cation-adjusted Mueller-Hinton Broth
Protocol: as §1

E. faecalis 29212 = assay: MIC by microdilution (NCCLS) against E. faecalis 29212; details: pH 7.2-7.3; for MIC: Enterococcus faecalis, 29212, cation-adjusted Mueller-Hinton Broth
Protocol: as §1

E. faecium A949 = assay: MIC by microdilution (NCCLS) against E. faecium A949; details: pH 7.2-7.3; for MIC: Enterococcus faecium, A949, cation-adjusted Mueller-Hinton Broth
Protocol: as §1

S. pneumoniae 49619 = assay: MIC by microdilution (NCCLS) against S. pneumoniae 49619; details: for MIC: Streptococcus pneumoniae, 49619, cation-adjusted Mueller-Hinton Broth, pH 7.2-7.3, read-out: MIC S. Pneunoniae 49619
Protocol: as §1

S. Pneunoniae A70 = assay: MIC by microdilution (NCCLS) against S. Pneunoniae A70; details: cation-adjusted Mueller-Hinton Broth, pH 7.2-7.3
Protocol: as §1

[1] = cation-adjusted Mueller-Hinton Broth

| SMILES | MIC S. aureus 29213 (S. aureus 29213; [1]) | MIC S. aureus A798 (S. aureus A798; [1]) | MIC E. faecalis 29212 (E. faecalis 29212; [1]) | MIC E. faecium A949 (E. faecium A949; [1]) | MIC S. Pneunoniae 49619 (S. pneumoniae 49619; cation-adjusted Mueller-Hinton Broth, pH 7.2-7.3) | MIC S. Pneunoniae A70 (S. Pneunoniae A70) | MIC (S. aureus 29213) | MIC (S. aureus A798) | MIC (E. faecalis 29212) | MIC (E. faecium A949) | MIC (S. pneumoniae 49619) | MIC (S. Pneunoniae A70) |
| --- | --- | --- | --- | --- | --- | --- | --- | --- | --- | --- | --- | --- |
| COc1cnc2cccc(C(O)CC[C@@H]3CCN(C/C=C/c4ccccc4)C[C@@H]3C(=O)O)c2c1 (mixture of isomers) [Example 10, (3R,4R)-4-[(3RS)-3-hydroxy-3-(3-methoxy-quinolin-5-yl)-propyl]-1-trans-(3-phenyl-allyl)-piperidine-3-carboxylic acid] | 0.5 mg/L (≈ 1.09 µM) | 0.25 mg/L (≈ 0.543 µM) | 4 mg/L (≈ 8.68 µM) | 4 mg/L (≈ 8.68 µM) | 1 mg/L (≈ 2.17 µM) | 4 mg/L (≈ 8.68 µM) |  |  |  |  |  |  |
| COc1cnc2cccc(OCC[C@@H]3CCN(CCSc4cccs4)C[C@@H]3CCC(=O)O)c2c1 [Example 1, 3-{(3R,4S)-4-[2-(3-methoxy-quinolin-5-yloxy)-ethyl]-1-[2-(thiophen-2-ylsulfanyl)-ethyl]-piperidin-3-yl}-propionic acid] |  |  |  |  |  |  | 0.5 mg/L (≈ 0.999 µM) | 0.25 mg/L (≈ 0.499 µM) | 8 mg/L (≈ 16 µM) | 1 mg/L (≈ 2 µM) | 0.5 mg/L (≈ 0.999 µM) | 1 mg/L (≈ 2 µM) |
| COc1cnc2cccc(OCC[C@@H]3CCN(CCSc4cccs4)C[C@@H]3CCCO)c2c1 [Example 2, 3-{(3R,4S)4-[2-(3-methoxy-quinolin-5-yloxy)-ethyl]-1-[2-(thiophen-2-ylsulfanyl)-ethyl]-piperidin-3-yl}-propan-1-ol] |  |  |  |  |  |  | 1 mg/L (≈ 2.05 µM) | 0.25 mg/L (≈ 0.514 µM) | 2 mg/L (≈ 4.11 µM) | 2 mg/L (≈ 4.11 µM) | 0.5 mg/L (≈ 1.03 µM) | 1 mg/L (≈ 2.05 µM) |
